test system: corona-pseudovirus; assay type: cell-based, SARS-CoV-2

Molecule | infection with the corona-pseudovirus (degree of infection depending on drug concentration)
CN(C)C(=O)COC(=O)Cc1ccc(OC(=O)c2ccc(NC(=N)N)cc2)cc1 [Camostat] | inhibited in a concentration-dependent manner
CCN(CCO)CCCC(C)Nc1ccnc2cc(Cl)ccc12 (stereo not drawn) [hydroxychloroquinine] | inhibited in a concentration-dependent manner
heparin | inhibited in a concentration-dependent manner

From patent US11980632B2 (priority 2020, dated 2024)
